Consider 23 compounds from ChEMBL document CHEMBL1136975, “Synthesis and activity of quinolinylmethyl P1' alpha-sulfone piperidine hydroxamate inhibitors of TACE” (Bioorg Med Chem Lett, 2009).

For assay [1], the species on record is Homo sapiens. The assay can be described thus: Selectivity ratio of IC50 for human recombinant MMP13 catalytic domain to IC50 for human TACE catalytic domain.
Assay [2] can be described thus: Selectivity for TACE over MMP13.
The target in assay [3] is Disintegrin and metalloproteinase domain-containing protein 17 (Homo sapiens, UniProt P78536). Nature of the assay: Inhibition of human TACE catalytic domain expressed in CHO cells by FRET assay. Type of assay: cell-based.
Chain of Disintegrin and metalloproteinase domain-containing protein 17 (P78536 whole entry, the tested form may be a part): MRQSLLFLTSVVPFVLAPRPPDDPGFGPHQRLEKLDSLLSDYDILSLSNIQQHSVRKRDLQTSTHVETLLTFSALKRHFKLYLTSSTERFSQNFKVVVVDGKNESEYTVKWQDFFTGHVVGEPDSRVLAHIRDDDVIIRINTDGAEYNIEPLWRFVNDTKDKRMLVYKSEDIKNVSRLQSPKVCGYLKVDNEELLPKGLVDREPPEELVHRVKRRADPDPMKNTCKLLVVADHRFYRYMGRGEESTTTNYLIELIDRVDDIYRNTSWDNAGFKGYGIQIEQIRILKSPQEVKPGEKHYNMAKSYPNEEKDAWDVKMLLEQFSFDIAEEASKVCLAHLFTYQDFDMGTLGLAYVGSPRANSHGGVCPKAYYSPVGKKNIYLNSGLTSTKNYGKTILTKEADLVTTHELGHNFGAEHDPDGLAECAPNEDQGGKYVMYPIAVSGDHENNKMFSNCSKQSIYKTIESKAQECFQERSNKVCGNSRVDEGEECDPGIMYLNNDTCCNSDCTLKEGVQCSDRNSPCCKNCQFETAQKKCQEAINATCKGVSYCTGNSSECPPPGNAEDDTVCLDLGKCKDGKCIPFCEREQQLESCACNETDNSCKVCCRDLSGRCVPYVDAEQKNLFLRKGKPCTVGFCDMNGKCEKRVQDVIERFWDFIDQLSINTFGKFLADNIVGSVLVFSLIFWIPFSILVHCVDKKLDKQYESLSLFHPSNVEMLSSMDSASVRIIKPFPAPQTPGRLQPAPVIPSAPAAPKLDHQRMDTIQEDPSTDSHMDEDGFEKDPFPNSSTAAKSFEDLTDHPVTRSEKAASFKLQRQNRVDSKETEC
Assay [4] deals with 72 kDa type IV collagenase (Homo sapiens, UniProt P08253). The assay can be described thus: inhibition of human recombinant MMP2 catalytic domain.
Chain of 72 kDa type IV collagenase (P08253 whole entry, the tested form may be a part): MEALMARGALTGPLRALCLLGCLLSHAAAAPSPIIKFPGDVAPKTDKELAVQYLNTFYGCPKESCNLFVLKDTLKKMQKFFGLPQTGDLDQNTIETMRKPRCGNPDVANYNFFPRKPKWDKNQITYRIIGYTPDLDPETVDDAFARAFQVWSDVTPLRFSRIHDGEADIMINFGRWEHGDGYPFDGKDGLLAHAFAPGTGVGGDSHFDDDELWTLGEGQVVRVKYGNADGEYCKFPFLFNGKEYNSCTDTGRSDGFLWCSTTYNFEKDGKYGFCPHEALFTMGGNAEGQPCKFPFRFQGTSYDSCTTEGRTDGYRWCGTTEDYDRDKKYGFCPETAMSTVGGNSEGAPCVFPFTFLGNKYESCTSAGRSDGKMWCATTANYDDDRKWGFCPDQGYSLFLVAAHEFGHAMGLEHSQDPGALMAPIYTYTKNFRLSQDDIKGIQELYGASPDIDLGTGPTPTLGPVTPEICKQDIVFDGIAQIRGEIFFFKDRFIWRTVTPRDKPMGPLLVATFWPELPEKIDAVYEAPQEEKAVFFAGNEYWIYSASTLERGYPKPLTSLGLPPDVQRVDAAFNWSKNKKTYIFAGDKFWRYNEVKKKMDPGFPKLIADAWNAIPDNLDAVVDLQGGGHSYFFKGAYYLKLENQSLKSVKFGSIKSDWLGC
For the next assay, the target named is Collagenase 3 (Homo sapiens, UniProt P45452). The assay can be described thus: inhibition of human recombinant MMP13 catalytic domain.
For assay [5], the species on record is Homo sapiens. Nature of the assay: Selectivity ratio of IC50 for human recombinant MMP2 catalytic domain to IC50 for human TACE catalytic domain.
Another assay concerns RAW264.7. Nature of the assay: Inhibition of LPS-induced TNFalpha production in mouse RAW264.7 cells preincubated for 1 hrs before LPS challenge measured after 4 hrs by ELISA. Type of assay: functional, cell-based.
Another assay relates to Blood. Nature of the assay: Inhibition of LPS-induced TNFalpha production in human whole blood preincubated for 1 hrs before LPS challenge measured after 4 hrs by ELISA. Type of assay: functional, tissue-based.
The target in assay [6] is Matrix metalloproteinase-9 (Homo sapiens, UniProt P14780). Nature of the assay: inhibition of human recombinant MMP9 catalytic domain.
Chain of Matrix metalloproteinase-9 (P14780 whole entry, the tested form may be a part): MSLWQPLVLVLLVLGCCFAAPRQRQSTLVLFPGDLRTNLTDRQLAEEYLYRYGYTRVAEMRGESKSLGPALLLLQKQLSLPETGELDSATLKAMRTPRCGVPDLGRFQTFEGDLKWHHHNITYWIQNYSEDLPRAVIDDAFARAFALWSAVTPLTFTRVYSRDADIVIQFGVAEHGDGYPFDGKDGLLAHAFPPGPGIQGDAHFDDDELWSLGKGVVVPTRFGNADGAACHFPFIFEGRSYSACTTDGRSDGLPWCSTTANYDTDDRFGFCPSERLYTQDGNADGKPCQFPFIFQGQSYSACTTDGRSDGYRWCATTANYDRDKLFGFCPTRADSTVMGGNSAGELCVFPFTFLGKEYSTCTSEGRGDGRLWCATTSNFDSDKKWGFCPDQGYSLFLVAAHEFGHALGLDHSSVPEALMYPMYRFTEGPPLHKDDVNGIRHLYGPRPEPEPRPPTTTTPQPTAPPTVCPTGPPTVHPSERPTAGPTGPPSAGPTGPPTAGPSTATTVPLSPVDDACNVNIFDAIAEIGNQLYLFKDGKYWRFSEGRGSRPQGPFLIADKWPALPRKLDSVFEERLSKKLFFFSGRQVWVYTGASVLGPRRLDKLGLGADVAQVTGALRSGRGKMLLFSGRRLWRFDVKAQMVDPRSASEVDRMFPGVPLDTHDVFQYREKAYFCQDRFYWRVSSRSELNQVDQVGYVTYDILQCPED
Assay [7] can be described thus: Selectivity for TACE over MMP1.
The nature of assay [8]: Selectivity for TACE over MMP2.
Assay [9] is described as follows: Selectivity for TACE over MMP9.
Assay [10] can be described thus: Selectivity for TACE over MMP14.

For the compound `CC#CCOc1ccc(S(=O)(=O)C2(C(=O)NO)CCN(C(C)=O)CC2)cc1`, the Ratio IC50 in the assay listed under Homo sapiens [1] was less than 10. For the same compound, in [2], the Selectivity ratio is less than 5.
Take `CCNC(=O)N1CCC(C(=O)NO)(S(=O)(=O)c2ccc(OCc3cc(C)nc4ccccc34)cc2)CC1`: the IC50 in [3] is 2 nM; in assay [4], 3610 nM; at Collagenase 3, 835 nM; in the assay with RAW264.7 it was 240 nM; in the assay with Blood, 2500 nM. Moreover, the Ratio IC50 in the assay filed under Homo sapiens [5] and in the assay listed under Homo sapiens [1] was greater than 90 in each case.
As for `Cc1cc(COc2ccc(S(=O)(=O)C3(C(=O)NO)CCN(C=O)CC3)cc2)c2ccccc2n1`, the IC50 was 2 nM in assay [3]; 1400 nM in assay [4]; 440 nM on Collagenase 3; greater than 12 µM in assay [6]; 68 nM in the assay on RAW264.7; 1300 nM in the assay with Blood. Also, the Ratio IC50 in the assay filed under Homo sapiens [5] and in the assay filed under Homo sapiens [1] was greater than 90 each time.
As to `CC#CCOc1ccc(S(=O)(=O)CC2(C(=O)NO)CCN(C(=O)c3ccccc3)CC2)cc1`, the values for the IC50 at Collagenase 3, in the assay on RAW264.7 and with Blood were 59 nM, 400 nM and 2500 nM, respectively.
As for `CC#CCOc1ccc(S(=O)(=O)CC2(C(=O)NO)CCNCC2)cc1`, the IC50 in assay [3] was 1 nM; in assay [4], 1590 nM; at Collagenase 3 it was 1900 nM. Besides, the Ratio IC50 in the assay listed under Homo sapiens [5] and in the assay listed under Homo sapiens [1] was greater than 1000 in each case.
As for `CC#CCOc1ccc(S(=O)(=O)CC2(C(=O)NO)CCN(C(=O)OC(C)(C)C)CC2)cc1`, the IC50 was 620 nM with RAW264.7 and 14000 nM with Blood.
For the compound `Cc1cc(COc2ccc(S(=O)(=O)C3(C(=O)NO)CCN(C(=O)OC(C)(C)C)CC3)cc2)c2ccccc2n1`, the IC50 was less than 1 nM in assay [3]; 2670 nM in assay [4]; 1110 nM at Collagenase 3; greater than 1000 nM in the assay on RAW264.7; greater than 50000 nM with Blood. Further, the Ratio IC50 in the assay listed under Homo sapiens [5] and in the assay filed under Homo sapiens [1] was greater than 90 in each case.
On to `Cc1cc(COc2ccc(S(=O)(=O)C3(C(=O)NO)CCN(S(C)(=O)=O)CC3)cc2)c2ccccc2n1`, for which the IC50 in assay [3] turned out to be 1.2 nM; in [4], 1740 nM; on Collagenase 3, 393 nM; in the assay on RAW264.7, 345 nM; with Blood, 2800 nM. In addition, the Ratio IC50 in the assay filed under Homo sapiens [5] and in the assay listed under Homo sapiens [1] was greater than 90 in each case.
For the compound `Cc1cc(COc2ccc(S(=O)(=O)C3(C(=O)NO)CCN(Cc4ccncc4)CC3)cc2)c2ccccc2n1`, the IC50 was found to be 9 nM in [3]; 855 nM in assay [4]; 266 nM at Collagenase 3; 378 nM with RAW264.7; 11000 nM with Blood.
As for `CC#CCOc1ccc(S(=O)(=O)C2(C(=O)NO)CCN(Cc3ccc(Cl)c(Cl)c3)CC2)cc1`, the values for the IC50 (in [3]; at Collagenase 3) were 149 nM and 72 nM, respectively. For the same compound, the Ratio IC50 in the assay filed under Homo sapiens [1] is less than 10.
As to `CC#CCOc1ccc(S(=O)(=O)C2(C(=O)NO)CCN(C(=O)OC(C)(C)C)CC2)cc1`, in the assay filed under Homo sapiens [1], the Ratio IC50 is less than 10.
In the case of `Cc1cc(COc2ccc(S(=O)(=O)C3(C(=O)NO)CCN(C(=O)c4ccncc4)CC3)cc2)c2ccccc2n1`, the IC50 was found to be 2 nM in assay [3]; 1090 nM in assay [4]; 349 nM on Collagenase 3; 230 nM in the assay with RAW264.7; 1900 nM with Blood. The Ratio IC50 in the assay listed under Homo sapiens [5] and in the assay listed under Homo sapiens [1] was greater than 90 throughout.
Regarding `CC(=O)N1CCC(C(=O)NO)(S(=O)(=O)c2ccc(OCc3cc(C)nc4ccccc34)cc2)CC1`, the IC50 in assay [3] is 1 nM; in [4] it was 6960 nM; on Collagenase 3, 1340 nM; with RAW264.7, 385 nM; in the assay with Blood, 1500 nM. Moreover, the Ratio IC50 in the assay filed under Homo sapiens [5] and in the assay listed under Homo sapiens [1] was greater than 90 in each case.
For `Cc1cc(COc2ccc(S(=O)(=O)C3(C(=O)NO)CCN(C(=O)C(C)C)CC3)cc2)c2ccccc2n1`, the IC50 in assay [3] was 2 nM; in assay [4], 1240 nM; at Collagenase 3, 415 nM; in the assay with RAW264.7, greater than 1000 nM; in the assay with Blood it was 14000 nM. In addition, the Ratio IC50 in the assay listed under Homo sapiens [5] and in the assay filed under Homo sapiens [1] was greater than 90 each time.
`Cc1cc(COc2ccc(S(=O)(=O)C3(C(=O)NO)CCN(C(=O)c4ccccc4)CC3)cc2)c2ccccc2n1`: the IC50 in [3] is 1 nM; in assay [4], 516 nM; at Collagenase 3, 204 nM; with RAW264.7 it was greater than 1000 nM; with Blood, 28000 nM. Moreover, the Ratio IC50 in the assay filed under Homo sapiens [5] and in the assay listed under Homo sapiens [1] was greater than 90 throughout.
`Cc1cc(COc2ccc(S(=O)(=O)C3(C(=O)NO)CCN(Cc4ccc(Cl)c(Cl)c4)CC3)cc2)c2ccccc2n1`: the IC50 was 65 nM in [3]; 145 nM in [4]; 80 nM at Collagenase 3; greater than 1000 nM with RAW264.7; greater than 50000 nM in the assay on Blood.
For the compound `CC#CCOc1ccc(S(=O)(=O)C2(C(=O)NO)CCNCC2)cc1`, the Ratio IC50 in the assay listed under Homo sapiens [1] is less than 10.
`Cc1cc(COc2ccc(S(=O)(=O)C3(C(=O)NO)CCN(S(=O)(=O)C(C)C)CC3)cc2)c2ccccc2n1`: the half-maximal inhibitory concentration (IC50) in assay [3] is 10 nM; in assay [4], 2140 nM; at Collagenase 3, 926 nM; with RAW264.7, greater than 1000 nM; in the assay with Blood, 14000 nM. Besides, the Ratio IC50 in the assay filed under Homo sapiens [5] and in the assay listed under Homo sapiens [1] was greater than 90 each time.
`CCN(CC)C(=O)N1CCC(C(=O)NO)(S(=O)(=O)c2ccc(OCc3cc(C)nc4ccccc34)cc2)CC1`: the IC50 in assay [3] was 3 nM; in assay [4], 96 nM; at Collagenase 3 it was 57 nM; with RAW264.7 it was greater than 1000 nM; with Blood, greater than 50000 nM.
On to `CC#CCOc1ccc(S(=O)(=O)C2(C(=O)NO)CCN(C(=O)c3ccccc3)CC2)cc1`, for which the Ratio IC50 in the assay filed under Homo sapiens [1] is less than 10.
For `Cc1cc(COc2ccc(S(=O)(=O)C3(C(=O)NO)CCN(C)CC3)cc2)c2ccccc2n1`, the IC50 in [3] was determined as 11 nM; in assay [4], 15100 nM; on Collagenase 3, 1450 nM; with RAW264.7, 125 nM; in the assay with Blood, 2400 nM. Besides, the Ratio IC50 in the assay filed under Homo sapiens [5] and in the assay listed under Homo sapiens [1] was greater than 90 throughout.
Consider `Cc1cc(COc2ccc(S(=O)(=O)C3(C(=O)NO)CCNCC3)cc2)c2ccccc2n1`, for which the IC50 in assay [3] is 33 nM; in assay [4] it was greater than 15000 nM; on Collagenase 3 it was 8620 nM; in [6], greater than 12 µM; in the assay with RAW264.7, 334 nM; in the assay on Blood, 2400 nM. Besides, the Ratio IC50 in the assay filed under Homo sapiens [5] and in the assay listed under Homo sapiens [1] was greater than 90 in each case.
For the compound `CC#CCOc1ccc(S(=O)(=O)CC2(C(=O)NO)CCN(C(C)=O)CC2)cc1`, the results for the IC50 (in assay [3]; with RAW264.7; with Blood) were 2 nM, 490 nM and 8700 nM, respectively. The Selectivity ratio in [7], in assay [8], in [9], in assay [2] and in assay [10] was greater than 75 in each case.
